Earlier results, collected in patent US9789059B2, “Oral disintegrating tablet” (Boehringer Ingelheim International GmbH, priority 2014, dated 2017).

Details: physiological pH range of the gastro-intestinal tract between pH 1 to 7; free acid form

solubility in aqueous systems: very poor solubility
SMILES: CCCc1nc2c(C)cc(-c3nc4ccccc4n3C)cc2n1Cc1ccc(-c2ccccc2C(=O)O)cc1 [Telmisartan, 4′-[2-n-propyl-4-methyl-6-(1-methylbenzimidazol-2-yl)-benzimidazol-1-ylmethyl]-biphenyl-2-carboxylic acid]
